# According to US20020182655A1, “Method for identifying ligands for G protein-coupled receptors” (priority 2001, published 2002):
# What was measured:
# hGPR 3 = hGPR 3 (Homo sapiens, UniProt P46089); assay: Ca2+ FLIPR assay in HEK293 cells transiently transfected with hGPR 3; assay type: cell-based
# Experimental: (§1) Transient transfections were carried out by incubating 5×10^5 HEK293 cells or 2×10^5 CHO-K1 cells in 6-well plates at 37° C. for 24 hours. The cells were then transfected with 1 to 2 μg of a vector, pcDNA 3.1, into which a GPR 3 gene was inserted by Hind III and Xba I sites, under the control of pcDNA 3.1. It is also expected that GPR 3, 6, or 12 may be cloned under control of the eukaryotic CMV promoter or of a control plasmid without corresponding cloned insert. The HEK293 cells were transfected with the aid of FuGene 6 transfection reagent (commercially available, for example from Roche Diagnostics) and the CHO cells were transfected with the aid of Lipofectamine reagent (commercially available, for example from GIBCO-BRL), in each case according to the manufacturer's instructions.
# (§2) HEK293 cells were transferred to 96-well microtiter plates 24 hours after transient transfection. The cell density was 80,000 cells per well. The microtiter plates were coated with poly-D-lysine. […] The compounds to be analyzed, i.e., S1P, DHS1P, suramin, and compounds from the lipid library, were present as 2 mM stock solutions in DMSO (dimethyl sulfoxide). […]
# (§3) The FLIPR was programmed such that 50 μl of the triple-concentrated suramin stock solution were added to the cells, leading to a final suramin concentration of 300 μM. Fluorescence was measured in 3 second intervals for the first 3 minutes and in 10 second intervals for the last 2 minutes. Ca^2+ signals of ligands were determined similarly.
# (§4) The fluorescence data of the 18 to 36 second time interval were used to determine agonist activity.
# (§5) Regarding the FLIPR assay, HEK293 cells were transferred to 96-well microtiter plates 24 hours after transient transfection. […] Compounds to be analyzed, e.g., S1P and DHS1 P, were added at this stage. Fluorescence was measured by means of a fluorometric imaging plate reader in 3 second intervals for the first 3 minutes and in 10 second intervals for the last 2 minutes. The fluorescence data of the 18 to 36 second time interval were used to determine agonist activity. […]
# hGPR 12 = target: T1, hGPR 12 (Homo sapiens, UniProt P47775); assay: Ca2+ FLIPR assay in HEK293 cells transiently transfected with hGPR 12; assay type: cell-based
# T1 sequence (P47775 1-334): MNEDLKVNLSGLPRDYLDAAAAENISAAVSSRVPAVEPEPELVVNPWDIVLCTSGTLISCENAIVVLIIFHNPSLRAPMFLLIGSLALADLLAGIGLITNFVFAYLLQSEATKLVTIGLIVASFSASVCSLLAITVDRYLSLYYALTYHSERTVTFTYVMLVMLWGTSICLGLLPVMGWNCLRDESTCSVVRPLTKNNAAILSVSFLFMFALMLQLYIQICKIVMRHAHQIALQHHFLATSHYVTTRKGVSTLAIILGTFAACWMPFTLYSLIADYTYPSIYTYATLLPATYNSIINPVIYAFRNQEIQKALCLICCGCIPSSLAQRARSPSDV
# Experimental: as §1, §2, §3, §4, §5
# hGPR 6 = hGPR 6 (Homo sapiens, UniProt P46095); assay: Ca2+ FLIPR assay in HEK293 cells transiently transfected with hGPR 6; assay type: cell-based
# Sequence of hGPR 6 (P46095 whole entry): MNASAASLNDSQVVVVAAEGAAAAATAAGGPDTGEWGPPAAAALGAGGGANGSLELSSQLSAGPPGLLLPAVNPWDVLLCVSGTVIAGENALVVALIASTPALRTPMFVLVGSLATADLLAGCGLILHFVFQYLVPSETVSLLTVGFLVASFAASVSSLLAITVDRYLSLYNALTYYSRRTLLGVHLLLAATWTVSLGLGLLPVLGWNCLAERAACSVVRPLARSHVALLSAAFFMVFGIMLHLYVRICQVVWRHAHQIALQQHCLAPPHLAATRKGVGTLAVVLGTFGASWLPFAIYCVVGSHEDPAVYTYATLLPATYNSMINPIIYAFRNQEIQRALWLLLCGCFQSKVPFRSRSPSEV
# Experimental: as §1, §2, §3, §4, §5
# HEK293 cells = assay: Ca2+ release in HEK293 cells; assay type: cell-based, human; details: for sensitivity of induced Ca2+ release to pertussis toxin: signal runs via Gαi-type G proteins
# Experimental: HEK293 cells were transferred to 96-well microtiter plates 24 hours after transient transfection. The cell density was 80,000 cells per well. The microtiter plates were coated with poly-D-lysine. The cells were kept in medium containing 1% (v/v) FCS (fetal calf serum) for 18 to 24 hours. After trypsinization, the cells were suspended in DMEM (Dulbecco's modified Eagle's medium) that also contained 25 mM HEPES (N-2-hydroxyethylpiperazine-N′-2-ethanesulfonic acid) pH 7.0, 1% (v/v) FCS, […] and 4 μM dye Fluo4 (fluorescent calcium indicator from Molecular Dynamics), and then incubated at 37° C. with 5% (v/v) CO2 for 1 hour. The cells were then washed 3 times with PBS (phosphate-buffered saline) containing 1 mM MgCl2, 1 mM EDTA and 0.4 mg/ml FAF-BSA (fatty acid-free bovine serum albumin). After the last washing step, the volume was 100 ,μl per […]. The compounds to be analyzed, i.e., S1P, DHS1P, suramin, and compounds from the lipid library, were present as 2 mM stock solutions in DMSO (dimethyl sulfoxide). These stock solutions were diluted 1:500 with the PBS solution containing 1 mM MgCl2, 1 mM EDTA and 0.4 mg/ml FAF-BSA. Lipids were present in the form of triple-concentrated 900 μM solutions prior to the assay. Suramin (Sigma) was prepared in the form of a triple-concentrated 900 μM solution in PBS containing 1 mM MgCl2, 1 EDTA, and 0.4 mg/ml FAF-BSA.
# as §3, §4
# Regarding the FLIPR assay, HEK293 cells were transferred to 96-well microtiter plates 24 hours after transient transfection. The cell density was 80,000 cells per well. The microtiter plates were coated with poly-D-lysine. The cells were kept in medium containing 1% (v/v) FCS (fetal calf serum) for 18 to 24 hours. […] Compounds to be analyzed, e.g., S1P and DHS1 P, were added at this stage. Fluorescence was measured by means of a fluorometric imaging plate reader in 3 second intervals for the first 3 minutes and in 10 second intervals for the last 2 minutes. The fluorescence data of the 18 to 36 second time interval were used to determine agonist activity. The reader itself equalizes internally the zero values.
# Sequence of hGPR 3 (P46089 whole entry): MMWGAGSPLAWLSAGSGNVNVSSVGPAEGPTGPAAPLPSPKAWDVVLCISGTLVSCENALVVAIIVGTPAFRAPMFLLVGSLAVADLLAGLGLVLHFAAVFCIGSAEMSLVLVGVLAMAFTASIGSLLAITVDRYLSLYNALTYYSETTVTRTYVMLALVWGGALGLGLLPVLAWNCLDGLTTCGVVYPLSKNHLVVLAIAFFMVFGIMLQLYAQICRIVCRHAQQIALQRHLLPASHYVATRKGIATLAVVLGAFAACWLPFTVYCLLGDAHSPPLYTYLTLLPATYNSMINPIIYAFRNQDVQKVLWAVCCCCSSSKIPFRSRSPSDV
Compound,"identification as ligand (agonist activity, Ca2+ signal) (hGPR 3)",EC50 (hGPR 3; Ca2+ FLIPR) [µM],"identification as ligand (agonist activity, Ca2+ signal) (hGPR 12)",EC50 (hGPR 12; Ca2+ FLIPR) [µM],"identification as ligand (agonist activity, Ca2+ signal) (hGPR 6)",EC50 (hGPR 6; Ca2+ FLIPR) [µM],Ca2+ release (HEK293 cells),sensitivity of induced Ca2+ release to pertussis toxin (HEK293 cells)
"CCCCCCCCCCCCC/C=C/[C@@H](O)[C@@H](N)COP(=O)(O)O [S1P, sphingosine 1-phosphate]",physiological ligands,< 0.1,physiological ligands,< 0.1,physiological ligands,< 0.1,cause Ca^2+release,pertussis toxin-sensitive
"CCCCCCCCCCCCCCC[C@@H](O)[C@@H](N)COP(=O)(O)O [DHS1P, dihydrosphingosine 1-phosphate]",physiological ligands,–,physiological ligands,–,physiological ligands,–,cause Ca^2+release,pertussis toxin-sensitive
